{"source": "patent US20090030024A1", "about": "“THIAZOLES AS FUNGICIDES” (priority 2005, published 2009)", "data": [{"test": "logP determination by retention times (calibration with alkan-2-ones)", "details": "* HPLC reversed-phase C18, 40° C., mobile phase 0.1% aqueous formic acid and acetonitrile, linear gradient 10% to 95% acetonitrile", "values": [{"smiles": "CNc1nc(C)c(-c2ccnc(Nc3cccc(Cl)c3)n2)s1", "note": "[Example 434, N-(3-chlorophenyl)-4-[4-methyl-2-(methylamine)-1,3-thiazol-5-yl]pyrimidine-2-amine]", "logP": "2.03*"}]}, {"test": "logP determination by retention times (calibration with alkan-2-ones)", "details": "logP, * HPLC reversed-phase C18, 40° C., mobile phase 0.1% aqueous formic acid and acetonitrile, linear gradient 10% to 95% acetonitrile", "values": [{"smiles": "CSc1nc(C)c(-c2ccnc(Nc3cccc(Cl)c3)n2)s1", "note": "[Example 435, N-(3-chlorophenyl)-4-[4-methyl-2-(methylthio)-1,3-thiazol-5-yl]pyrimidine-2-amine]", "chromatographic logP": 4.08}, {"smiles": "COCC(C)Nc1nc(C)c(-c2ccnc(Nc3cccc(Cl)c3)n2)s1", "note": "(stereo not shown) [Example 437, N-(3-chlorophenyl)-4-{2-[(2-methoxy-1-methylethyl)amino]-4-methyl-1,3-thiazol-5-yl}pyrimidine-2-amine]", "chromatographic logP": 2.47}, {"smiles": "Cc1nc(NCC2CCCO2)sc1-c1ccnc(Nc2cccc(Cl)c2)n1", "note": "(stereo not shown) [Example 443, N-(3-chlorophenyl)-4-{4-methyl-2-[(tetrahydrofuran-2-ylmethyl)amino]-1,3-thiazol-5-yl}pyrimidine-2-amine]", "chromatographic logP": 2.36}, {"smiles": "COc1cccc(Nc2nccc(-c3sc(SC)nc3C)n2)c1", "note": "[Example 449, N-(3-methoxyphenyl)-4-[4-methyl-2-(methylthio)-1,3-thiazol-5-yl]pyrimidine-2-amine]", "chromatographic logP": 3.33}, {"smiles": "COc1cccc(Nc2nccc(-c3sc(NCC4CCCO4)nc3C)n2)c1", "note": "(stereo not shown) [Example 451, N-(3-methoxyphenyl)-4-{4-methyl-2-[(tetrahydrofuran-2-ylmethyl)amino]-1,3-thiazol-5-yl}pyrimidine-2-amine]", "chromatographic logP": 1.94}, {"smiles": "CC(=O)Nc1ccc(Nc2nccc(-c3sc(C)nc3C)n2)cc1", "note": "[Example 458, N-(4-{[4-(2,4-dimethyl-1,3-thiazol-5-yl)pyrimidin-2-yl]amino}phenyl)acetamide]", "chromatographic logP": 1.62}, {"smiles": "CC(=O)Nc1ccc(Nc2nccc(-c3sc(C4CC4)nc3C)n2)cc1", "note": "[Example 459, N-(4-{[4-(2-cyclopropyl-4-methyl-1,3-thiazol-5-yl)pyrimidin-2-yl]amino}phenyl)acetamide]", "chromatographic logP": 2}, {"smiles": "CCc1nc(C)c(-c2ccnc(Nc3ccc(Cl)cc3)n2)s1", "note": "[Example 463, N-(4-chlorophenyl)-4-(2-ethyl-4-methyl-1,3-thiazol-5-yl)pyrimidine-2-amine]", "chromatographic logP": 3.72}, {"smiles": "Cc1nc(C(C)C)sc1-c1ccnc(Nc2ccc(Cl)cc2)n1", "note": "[Example 464, N-(4-chlorophenyl)-4-(2-isopropyl-4-methyl-1,3-thiazol-5-yl)pyrimidine-2-amine]", "chromatographic logP": 4.25}, {"smiles": "COCc1nc(C)c(-c2ccnc(Nc3ccc(Cl)cc3)n2)s1", "note": "[Example 465, N-(4-chlorophenyl)-4-[2-(methoxymethyl)-4-methyl-1,3-thiazol-5-yl]pyrimidine-2-amine]", "chromatographic logP": 3.29}, {"smiles": "COCc1nc(C)c(-c2ccnc(Nc3ccc(F)c(C)c3)n2)s1", "note": "[Example 478, N-(4-fluoro-3-methylphenyl)-4-[2-(methoxymethyl)-4-methyl-1,3-thiazol-5-yl]pyrimidine-2-amine]", "chromatographic logP": 3.14}, {"smiles": "CSc1nc(C)c(-c2ccnc(Nc3ccc(F)c(C)c3)n2)s1", "note": "[Example 481, N-(4-fluoro-3-methylphenyl)-4-[4-methyl-2-(methylthio)-1,3-thiazol-5-yl]pyrimidine-2-amine]", "chromatographic logP": 3.89}, {"smiles": "COCC(C)Nc1nc(C)c(-c2ccnc(Nc3ccc(F)c(C)c3)n2)s1", "note": "(stereo not shown) [Example 482, N-(4-fluoro-3-methylphenyl)-4-{2-[(2-methoxy-1-methylethyl)amino]-4-methyl-1,3-thiazol-5-yl}pyrimidine-2-amine]", "chromatographic logP": 2.19}, {"smiles": "Cc1cc(Nc2nccc(-c3sc(NCC4CCCO4)nc3C)n2)ccc1F", "note": "(stereo not shown) [Example 483, N-(4-fluoro-3-methylphenyl)-4-{4-methyl-2-[(tetrahydrofuran-2-ylmethyl)amino]-1,3-thiazol-5-yl}pyrimidine-2-amine]", "chromatographic logP": 2.03}]}, {"test": "logP determination by retention times (calibration with alkan-2-ones)", "details": "logP, ** HPLC reversed-phase C18, 43° C., mobile phase 0.1% aqueous phosphoric acid and acetonitrile, linear gradient 10% to 95% acetonitrile", "values": [{"smiles": "Cc1nc(C)c(-c2ccnc(Nc3ccc(Cl)cc3)n2)s1", "note": "[Example 462, N-(4-chlorophenyl)-4-(2,4-dimethyl-1,3-thiazol-5-yl)pyrimidine-2-amine]", "chromatographic logP": 3.09}]}]}
